Experimental data published in ChEMBL document CHEMBL1154514, “Synthesis and biological evaluation of N-mercaptoacylcysteine derivatives as leukotriene A4 hydrolase inhibitors” (Bioorg Med Chem Lett, 2009).

Legend:
[1] = molecular target: Angiotensin-converting enzyme (Homo sapiens, UniProt P12821); experiment: Inhibition of angiotensin-converting enzyme in whole blood by HPLC; type: tissue-based
[2] = molecular target: T1, Leukotriene A-4 hydrolase (Cavia porcellus, UniProt P19602); experiment: Inhibition of LTA4 hydrolase in guinea pig lung assessed as inhibition of LTB4 production
T1 sequence (P19602 whole entry): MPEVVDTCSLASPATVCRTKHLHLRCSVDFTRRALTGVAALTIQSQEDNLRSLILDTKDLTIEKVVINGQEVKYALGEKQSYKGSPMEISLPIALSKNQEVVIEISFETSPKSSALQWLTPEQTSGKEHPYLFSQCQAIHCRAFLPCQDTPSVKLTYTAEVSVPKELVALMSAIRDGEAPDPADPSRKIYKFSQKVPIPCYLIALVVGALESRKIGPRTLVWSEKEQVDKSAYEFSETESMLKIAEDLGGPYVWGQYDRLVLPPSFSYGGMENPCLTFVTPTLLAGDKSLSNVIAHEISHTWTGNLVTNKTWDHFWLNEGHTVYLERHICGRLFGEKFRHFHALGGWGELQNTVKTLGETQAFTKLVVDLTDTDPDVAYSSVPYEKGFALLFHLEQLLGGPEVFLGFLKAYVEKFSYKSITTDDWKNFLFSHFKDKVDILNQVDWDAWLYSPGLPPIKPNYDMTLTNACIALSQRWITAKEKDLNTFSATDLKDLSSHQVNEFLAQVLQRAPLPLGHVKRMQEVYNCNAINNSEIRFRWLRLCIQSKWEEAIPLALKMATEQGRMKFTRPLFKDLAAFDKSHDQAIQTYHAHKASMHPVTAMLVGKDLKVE

[3] = molecular target: Aminopeptidase N (Homo sapiens) (UniProt P15144); experiment: Inhibition of aminopeptidase M at 100 uM
Collagenase 3 = Collagenase 3 (Homo sapiens, UniProt P45452); experiment: Inhibition of type 3 collagenase
[4] = molecular target: T2, Interstitial collagenase (Homo sapiens) (UniProt P03956); experiment: Inhibition of type 1 collagenase at 100 uM
T2 sequence (whole entry): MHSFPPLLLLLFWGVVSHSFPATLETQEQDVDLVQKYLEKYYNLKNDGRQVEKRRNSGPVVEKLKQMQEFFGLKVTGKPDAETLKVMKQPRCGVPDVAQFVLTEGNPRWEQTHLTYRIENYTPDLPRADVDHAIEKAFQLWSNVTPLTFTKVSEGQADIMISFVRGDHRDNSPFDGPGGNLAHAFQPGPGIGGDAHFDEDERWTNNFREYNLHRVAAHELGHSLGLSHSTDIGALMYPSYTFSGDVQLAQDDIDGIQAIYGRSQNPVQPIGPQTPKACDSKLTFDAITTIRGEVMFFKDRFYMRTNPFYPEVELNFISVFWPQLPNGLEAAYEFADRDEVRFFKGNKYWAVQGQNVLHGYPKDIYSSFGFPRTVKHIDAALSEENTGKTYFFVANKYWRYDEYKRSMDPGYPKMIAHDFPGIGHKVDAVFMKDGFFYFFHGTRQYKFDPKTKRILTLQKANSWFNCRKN

[5] = molecular target: Neprilysin (Homo sapiens) (UniProt P08473); experiment: Inhibition of endopeptidase 24.11 at 100 uM
[6] = molecular target: T3, Endothelin-converting enzyme 1 (Homo sapiens) (UniProt P42892); experiment: Inhibition of endothelin-converting enzyme 1 at 100 uM
T3 sequence (whole entry): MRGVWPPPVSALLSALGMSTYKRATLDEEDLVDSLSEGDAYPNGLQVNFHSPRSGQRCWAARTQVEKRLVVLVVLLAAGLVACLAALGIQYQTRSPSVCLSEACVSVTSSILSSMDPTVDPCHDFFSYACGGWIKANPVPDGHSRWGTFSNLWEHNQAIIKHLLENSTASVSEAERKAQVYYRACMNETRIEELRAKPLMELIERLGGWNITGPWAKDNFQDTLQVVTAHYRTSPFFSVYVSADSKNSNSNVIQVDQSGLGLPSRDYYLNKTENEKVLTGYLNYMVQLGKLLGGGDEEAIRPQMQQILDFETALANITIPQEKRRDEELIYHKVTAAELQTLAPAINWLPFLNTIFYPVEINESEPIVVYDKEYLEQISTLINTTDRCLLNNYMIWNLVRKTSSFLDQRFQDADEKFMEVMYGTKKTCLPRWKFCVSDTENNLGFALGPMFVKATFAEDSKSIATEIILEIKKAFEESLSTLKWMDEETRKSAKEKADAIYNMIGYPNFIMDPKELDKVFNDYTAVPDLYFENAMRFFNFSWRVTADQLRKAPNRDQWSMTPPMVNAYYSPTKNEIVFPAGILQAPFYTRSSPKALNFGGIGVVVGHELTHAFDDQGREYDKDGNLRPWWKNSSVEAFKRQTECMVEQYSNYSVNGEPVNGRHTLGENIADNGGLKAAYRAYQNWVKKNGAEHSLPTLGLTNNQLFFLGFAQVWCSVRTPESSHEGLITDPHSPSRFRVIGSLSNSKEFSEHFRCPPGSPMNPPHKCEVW

Angiotensin-converting enzyme, sequence (P12821 whole entry): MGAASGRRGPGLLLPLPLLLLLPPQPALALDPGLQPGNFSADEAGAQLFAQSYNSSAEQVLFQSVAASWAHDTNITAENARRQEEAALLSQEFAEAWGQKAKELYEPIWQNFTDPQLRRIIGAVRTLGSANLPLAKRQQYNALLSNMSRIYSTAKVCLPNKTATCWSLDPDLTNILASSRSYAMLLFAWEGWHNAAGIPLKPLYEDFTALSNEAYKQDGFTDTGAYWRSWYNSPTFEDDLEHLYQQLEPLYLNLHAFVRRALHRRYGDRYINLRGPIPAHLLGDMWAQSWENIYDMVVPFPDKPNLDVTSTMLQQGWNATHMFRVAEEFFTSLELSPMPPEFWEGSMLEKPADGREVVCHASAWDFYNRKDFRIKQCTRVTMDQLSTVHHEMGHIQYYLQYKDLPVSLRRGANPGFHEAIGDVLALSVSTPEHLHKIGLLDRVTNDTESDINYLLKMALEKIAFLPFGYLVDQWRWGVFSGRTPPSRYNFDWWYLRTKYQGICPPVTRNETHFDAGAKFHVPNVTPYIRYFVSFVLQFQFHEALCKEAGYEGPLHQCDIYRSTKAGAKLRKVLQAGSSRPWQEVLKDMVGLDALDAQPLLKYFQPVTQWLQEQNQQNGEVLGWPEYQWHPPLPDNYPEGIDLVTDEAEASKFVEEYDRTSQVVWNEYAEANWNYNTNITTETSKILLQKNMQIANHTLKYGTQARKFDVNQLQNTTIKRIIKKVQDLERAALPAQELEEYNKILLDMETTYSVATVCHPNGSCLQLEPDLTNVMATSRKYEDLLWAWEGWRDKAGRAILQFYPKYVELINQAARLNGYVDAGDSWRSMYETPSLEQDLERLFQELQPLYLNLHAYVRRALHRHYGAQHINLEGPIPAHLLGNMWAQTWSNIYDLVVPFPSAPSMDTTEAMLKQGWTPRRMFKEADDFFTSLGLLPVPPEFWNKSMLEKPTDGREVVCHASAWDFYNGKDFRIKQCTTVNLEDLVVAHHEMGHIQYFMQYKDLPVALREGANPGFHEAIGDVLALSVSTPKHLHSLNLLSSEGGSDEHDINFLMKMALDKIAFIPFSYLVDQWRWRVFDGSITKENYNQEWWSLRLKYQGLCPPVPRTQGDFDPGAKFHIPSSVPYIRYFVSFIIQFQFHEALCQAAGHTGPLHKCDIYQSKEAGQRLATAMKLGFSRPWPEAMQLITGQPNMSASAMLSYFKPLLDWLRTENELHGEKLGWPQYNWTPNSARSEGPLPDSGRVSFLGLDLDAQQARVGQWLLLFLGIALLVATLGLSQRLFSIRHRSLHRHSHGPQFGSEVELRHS
Aminopeptidase N (Homo sapiens), sequence (P15144 whole entry): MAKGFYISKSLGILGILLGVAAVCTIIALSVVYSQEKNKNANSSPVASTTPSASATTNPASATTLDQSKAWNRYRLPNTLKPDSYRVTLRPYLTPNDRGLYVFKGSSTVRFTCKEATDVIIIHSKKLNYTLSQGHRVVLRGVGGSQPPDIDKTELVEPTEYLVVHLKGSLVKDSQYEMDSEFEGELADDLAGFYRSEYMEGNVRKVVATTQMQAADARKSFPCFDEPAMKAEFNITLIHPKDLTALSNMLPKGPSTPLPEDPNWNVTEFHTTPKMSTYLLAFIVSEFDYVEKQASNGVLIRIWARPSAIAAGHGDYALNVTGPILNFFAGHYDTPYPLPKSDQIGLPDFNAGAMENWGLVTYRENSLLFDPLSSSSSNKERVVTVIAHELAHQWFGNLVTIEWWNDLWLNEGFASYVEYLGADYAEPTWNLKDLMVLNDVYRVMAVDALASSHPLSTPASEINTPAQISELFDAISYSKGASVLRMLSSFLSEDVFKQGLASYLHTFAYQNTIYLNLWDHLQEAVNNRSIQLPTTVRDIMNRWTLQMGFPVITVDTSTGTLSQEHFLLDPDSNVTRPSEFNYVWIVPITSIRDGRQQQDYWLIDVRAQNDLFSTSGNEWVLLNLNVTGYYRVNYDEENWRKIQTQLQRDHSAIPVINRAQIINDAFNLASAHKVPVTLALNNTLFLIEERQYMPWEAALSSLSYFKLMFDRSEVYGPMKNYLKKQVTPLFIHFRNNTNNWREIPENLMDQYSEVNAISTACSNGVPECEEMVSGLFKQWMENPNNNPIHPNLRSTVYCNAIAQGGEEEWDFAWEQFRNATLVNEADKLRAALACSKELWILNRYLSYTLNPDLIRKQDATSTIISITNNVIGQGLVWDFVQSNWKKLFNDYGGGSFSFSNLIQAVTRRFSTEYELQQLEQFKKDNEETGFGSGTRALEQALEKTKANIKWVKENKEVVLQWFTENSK
Neprilysin (Homo sapiens), sequence (P08473 whole entry): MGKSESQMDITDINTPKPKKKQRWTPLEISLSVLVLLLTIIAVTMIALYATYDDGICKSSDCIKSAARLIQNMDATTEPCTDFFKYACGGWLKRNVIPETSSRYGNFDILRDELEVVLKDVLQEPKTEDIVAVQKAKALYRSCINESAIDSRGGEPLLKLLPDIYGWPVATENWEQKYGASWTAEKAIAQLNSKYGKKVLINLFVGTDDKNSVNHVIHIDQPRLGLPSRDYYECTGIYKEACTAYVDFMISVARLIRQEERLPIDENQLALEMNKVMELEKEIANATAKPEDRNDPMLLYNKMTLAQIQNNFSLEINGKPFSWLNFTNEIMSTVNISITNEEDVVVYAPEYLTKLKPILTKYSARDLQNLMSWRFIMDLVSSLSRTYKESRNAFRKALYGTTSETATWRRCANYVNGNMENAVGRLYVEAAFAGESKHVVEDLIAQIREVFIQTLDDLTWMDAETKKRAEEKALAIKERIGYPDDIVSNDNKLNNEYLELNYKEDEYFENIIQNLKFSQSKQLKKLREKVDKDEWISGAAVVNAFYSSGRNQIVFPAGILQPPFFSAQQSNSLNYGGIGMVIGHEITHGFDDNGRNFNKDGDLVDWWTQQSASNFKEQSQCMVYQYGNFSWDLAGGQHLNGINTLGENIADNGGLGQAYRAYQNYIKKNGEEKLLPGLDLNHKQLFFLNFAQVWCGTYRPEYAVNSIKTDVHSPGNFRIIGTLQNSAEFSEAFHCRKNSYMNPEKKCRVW

CCC(SC[C@H](NC(=O)[C@H](C)CS)C(=O)O)c1ccc(C(C)C)cc1 (stereo partly drawn)
IC50 [1]: 0.34 µM

CN(C)c1ccc(CSC[C@H](NC(=O)CS)C(=O)O)cc1
IC50 ([2]; read-out: IC50): 0.47 µM

C[C@H](CS)C(=O)N[C@@H](CSCc1ccc([N+](=O)[O-])cc1)C(=O)O
IC50 [1]: 0.32 µM
IC50 ([2]; read-out: IC50): 4.9 µM

CC(C)c1ccc(C(C)(C)SC[C@H](NC(=O)[C@H](C)CS)C(=O)O)cc1
IC50 [1]: 0.26 µM
IC50 ([2]; read-out: IC50): 0.079 µM

C[C@H](CS)C(=O)N[C@@H](CSCc1ccc(C2CCCCC2)cc1)C(=O)O
IC50 [1]: 4 µM
IC50 ([2]; read-out: pIC50 (converted)): 0.079 µM

CC(C)c1ccc(C(SC[C@H](NC(=O)[C@H](C)CS)C(=O)O)C(C)C)cc1 (stereo partly drawn)
IC50 [1]: 0.43 µM
IC50 ([2]; read-out: IC50): 0.52 µM

C[C@H](CS)C(=O)N[C@@H](CCSCc1ccc(N(C)C)cc1)C(=O)O
IC50 ([2]; read-out: IC50): > 10 µM

C[C@H](CS)C(=O)N[C@@H](CSCc1ccc(OC(F)(F)F)cc1)C(=O)O
IC50 [1]: 0.26 µM
IC50 ([2]; read-out: IC50): 0.4 µM

CN(C)c1ccc(CSC[C@H](NC(=O)CCS)C(=O)O)cc1
IC50 ([2]; read-out: IC50): > 10 µM

C[C@H](CS)C(=O)N[C@@H](CSCc1ccccc1)C(=O)O
IC50 [1]: 0.034 µM
IC50 ([2]; read-out: IC50): > 10 µM

CN(C)c1ccc(CSC[C@H](NC(=O)CCCS)C(=O)O)cc1
IC50 ([2]; read-out: IC50): > 10 µM

CCOc1ccc(CSC[C@H](NC(=O)[C@H](C)CS)C(=O)O)cc1
IC50 [1]: 0.34 µM
IC50 ([2]; read-out: IC50): 0.64 µM
IC50 ([2]; read-out: pIC50 (converted)): 0.64 µM

C[C@H](CS)C(=O)N[C@@H](CSCc1ccc(-c2ccccc2)cc1)C(=O)O
IC50 [1]: 0.28 µM
IC50 ([2]; read-out: IC50): 0.6 µM
IC50 ([2]; read-out: pIC50 (converted)): 0.0794 µM

CC(S)CC(=O)N[C@@H](CSCc1ccc(N(C)C)cc1)C(=O)O (stereo partly drawn)
IC50 ([2]; read-out: IC50): 7.4 µM

C[C@H](S)C(=O)N[C@@H](CSCc1ccc(N(C)C)cc1)C(=O)O
IC50 ([2]; read-out: IC50): > 10 µM

CC(C)c1ccc(CSC[C@H](NC(=O)[C@H](C)CS)C(=O)O)cc1
IC50 [1]: 0.3 µM
IC50 ([2]; read-out: pIC50 (converted)): 0.2 µM

C[C@H](CS)C(=O)N[C@@H](CSCc1ccc(N(C)C)cc1)C(=O)O
inhibition [3]: 42%
IC50 (Collagenase 3): Not Active
IC50 [1]: 0.52 µM
inhibition [4]: 3%
inhibition [5]: 16%
inhibition [6]: 8%
IC50 ([2]; read-out: IC50): 0.27 µM
IC50 ([2]; read-out: pIC50 (converted)): 0.27 µM

C[C@H](CS)C(=O)N[C@@H](CSCc1ccc(Cl)cc1)C(=O)O
IC50 [1]: 0.25 µM
IC50 ([2]; read-out: IC50): 1.7 µM
IC50 ([2]; read-out: pIC50 (converted)): 1.7 µM

CCCC(SC[C@H](NC(=O)[C@H](C)CS)C(=O)O)c1ccc(C(C)C)cc1 (stereo partly drawn)
IC50 [1]: 0.42 µM
IC50 ([2]; read-out: IC50): 0.18 µM

Cc1ccc(CSC[C@H](NC(=O)[C@H](C)CS)C(=O)O)cc1
IC50 [1]: 0.24 µM
IC50 ([2]; read-out: IC50): 7.2 µM
IC50 ([2]; read-out: pIC50 (converted)): 7.2 µM

COc1ccc(CSC[C@H](NC(=O)[C@H](C)CS)C(=O)O)cc1
IC50 [1]: 0.1 µM
IC50 ([2]; read-out: IC50): 2.4 µM
IC50 ([2]; read-out: pIC50 (converted)): 2.4 µM

C[C@H](CS)C(=O)N[C@@H](CSC(C)(C)c1ccc(C2CCCCC2)cc1)C(=O)O
IC50 [1]: 3 µM

CCc1ccc(CSC[C@H](NC(=O)[C@H](C)CS)C(=O)O)cc1
IC50 [1]: 0.021 µM
IC50 ([2]; read-out: pIC50 (converted)): 0.28 µM

C[C@H](CS)C(=O)N[C@@H](CSC(c1ccccc1)c1ccc(C2CCCCC2)cc1)C(=O)O (stereo partly drawn)
IC50 [1]: > 10 µM
IC50 ([2]; read-out: IC50): 0.21 µM

C[C@H](CS)C(=O)N[C@@H](CSCc1ccc(I)cc1)C(=O)O
IC50 [1]: 0.14 µM
IC50 ([2]; read-out: pIC50 (converted)): 0.015 µM

C[C@H](CS)C(=O)N[C@@H](CSCc1ccc(C#N)cc1)C(=O)O
IC50 [1]: 0.3 µM
IC50 ([2]; read-out: IC50): 0.53 µM

C[C@H](CS)C(=O)N[C@H](CSCc1ccc(N(C)C)cc1)C(=O)O
IC50 ([2]; read-out: IC50): > 10 µM

CCCc1ccc(CSC[C@H](NC(=O)[C@H](C)CS)C(=O)O)cc1
IC50 [1]: 0.21 µM
IC50 ([2]; read-out: pIC50 (converted)): 0.072 µM

CCN(CC)c1ccc(CSC[C@H](NC(=O)[C@H](C)CS)C(=O)O)cc1
IC50 [1]: 4.6 µM

CSc1ccc(CSC[C@H](NC(=O)[C@H](C)CS)C(=O)O)cc1
IC50 [1]: 0.3 µM

C[C@H](CS)C(=O)N[C@@H](CSCc1ccc(C(F)(F)F)cc1)C(=O)O
IC50 [1]: 0.34 µM
IC50 ([2]; read-out: pIC50 (converted)): 0.14 µM

C[C@H](CS)C(=O)N[C@@H](CSCc1ccc(Br)cc1)C(=O)O
IC50 [1]: 0.28 µM
IC50 ([2]; read-out: IC50): 0.61 µM
IC50 ([2]; read-out: pIC50 (converted)): 0.61 µM

C[C@H](CS)C(=O)N[C@@H](CSCc1cccc(N(C)C)c1)C(=O)O
IC50 ([2]; read-out: IC50): > 10 µM

C[C@H](CS)C(=O)N[C@@H](CSCc1ccc(Oc2ccccc2)cc1)C(=O)O
IC50 [1]: 0.37 µM
IC50 ([2]; read-out: IC50): 1.7 µM
IC50 ([2]; read-out: pIC50 (converted)): 1.7 µM

C[C@H](CS)C(=O)N[C@@H](CSCc1ccc(F)cc1)C(=O)O
IC50 [1]: 0.1 µM
IC50 ([2]; read-out: IC50): > 10 µM
IC50 ([2]; read-out: pIC50 (converted)): > 10 µM

CCCCC(SC[C@H](NC(=O)[C@H](C)CS)C(=O)O)c1ccc(C(C)C)cc1 (stereo partly drawn)
IC50 [1]: 3.6 µM
IC50 ([2]; read-out: IC50): 0.51 µM

CC(C)c1ccc(C(SC[C@H](NC(=O)[C@H](C)CS)C(=O)O)c2ccccc2)cc1 (stereo partly drawn)
IC50 [1]: 1.7 µM
IC50 ([2]; read-out: IC50): 0.091 µM

C[C@H](CS)C(=O)N[C@@H](CSCc1ccc(S(C)(=O)=O)cc1)C(=O)O
IC50 [1]: 0.3 µM

C[C@H](CS)C(=O)N[C@@H](CSCc1ccc(C(C)(C)C)cc1)C(=O)O
IC50 [1]: 0.13 µM
IC50 ([2]; read-out: pIC50 (converted)): 0.024 µM

C[C@@H](S)C(=O)N[C@@H](CSCc1ccc(N(C)C)cc1)C(=O)O
IC50 ([2]; read-out: IC50): > 10 µM

CC(C)c1ccc(CSC(C)(C)[C@H](NC(=O)[C@H](C)CS)C(=O)O)cc1
IC50 [1]: > 10 µM
IC50 ([2]; read-out: IC50): > 10 µM

CC(C)c1ccc(C(C)SC[C@H](NC(=O)[C@H](C)CS)C(=O)O)cc1 (stereo partly drawn)
IC50 [1]: 0.2 µM
